Measurements: patent US8772313B2, “Benzenesulfonyl or sulfonamide compounds suitable for treating disorders that respond to the modulation of the serotonin 5-HT6 receptor” (Abbott Laboratories, priority 2010, dated 2014)
Where a name gives a salt, the structure may show the parent alone.

Target: T1, h-5-HT6 receptor (Homo sapiens, UniProt P50406)
T1 construct: expressed in transfected cells
Assay: 5-HT6 receptor binding assay (displacement of [3H]-LSD)
Settings: membranes of HEK293 cells expressing h-5-HT6 receptor, 1 nM [3H]-LSD
Procedure: Displacement of radioligands binding to the following cloned human receptors
Cells from stable clonal cell lines expressing the corresponding receptor (5-HT6, α1-adrenergic, dopamine D2 or histamine H1 receptors) were washed with PBS (w/o Ca^++, Mg^++) and harvested in PBS with 0.02% EDTA. The cells were collected by centrifugation at 500 g for 10 min. at 4° C., washed with PBS and centrifuged (500 g, 10 min. 4° C.). The pellets were stored at −80° C. until use. For membrane preparation, the thawed cell pellet was resuspended in ice-cold sucrose buffer (0.25 M sucrose, 10 mM Hepes (pH 7.4), 1 mM Phenylmethylsulfonyl fluoride (PMSF) in DMSO, 5 μg/ml Pepstatin-A, 3 mM EDTA, 0.025% Bacitracin) and homogenized with a Branson Sonifier W-250 (Settings: Timer 4; Output Control 3; Duty Cycle constant; 2 to 3 cycles). Cell disruption was checked with the aid of a microscope. Remaining unbroken cells were pelleted at 1.000 g for 10 min. at 4° C. The sucrose buffer supernatant was then centrifuged at 60.000 g for 1 h at 4° C. (Beckman Ultrazentrifuge XL 80). The pellet was resuspended in 30 ml ice-cold Tris buffer (20 mM TRIS (pH 7.4), 5 μg/ml Pepstatin A, 0.1 mM PMSF, 3 mM EDTA) by pipetting through a 10 ml serological pipet and centrifuged for 1 h at 4° C. at 60.000 g. A final resuspension was performed in a small volume of ice-cold Tris buffer (see above) by pressing through a serological pipet followed by ultrasonic treatment with a Branson Sonifier W-250 (Settings: Timer 1; Output Control 3; Duty Cycle constant; 1 cycle). Protein concentration was determined (BCA-Kit; Pierce) and aliquots stored at −80° C. or in liquid nitrogen for long-term storage.
All receptor binding experiments were carried out in the corresponding assay buffer in a total volume of 200 μl in the presence of various concentrations of test compound (10^−5 M to 10^−9 M, tenfold serial dilution, duplicate determinations). The assays were terminated by filtration on polyethylenimine (PEI 0.1% or 0.3%) presoaked Packard Unifilter Plates (GF/C or GF/B) with a Tomtec MachIII U 96 well-plate harvester. After the plates had been dried for 2 h at 55° C. in a drying chamber scintillation cocktail (BetaPlate Scint; PerkinElmer) was added. Radioactivity was measured in a Microbeta Trilux two hours after the addition of the scintillation mixture. Data derived from liquid scintillation counting were analysed by iterative non-linear regression analysis with the use of the Statistical Analysis System (SAS): a program similar to “LIGAND” as described by Munson and Rodbard (Analytical Biochemistry 107, 220-239 (1980).
HEK293 cells stably expressing the h-5-HT6 receptor (NCBI Reference Sequence XM 001435) were cultured in RPMI1640 medium supplemented with 25 mM HEPES, 10% fetal calf serum and 1-2 mM glutamine. The membrane preparation was performed as described in section 1. […] Non-specific binding was defined with 1 μM methiothepin. The binding reaction was carried out for 3.5 h at room temperature. During the incubation, the plates were shaken on a plate shaker at 100 rpm and terminated by filtration on Packard Unifilter GF/C (0.1% PEI) plates, followed by 2 wash cycles with ice-cold 50 mM Tris-HCl, 5 mM CaCl2.
Data derived from liquid scintillation counting were analyzed by iterative non-linear regression analysis with the use of the Statistical Analysis System (SAS): a program similar to “LIGAND” as described by Munson and Rodbard (Anal. Biochem. 1980, 107, 220-239). Fitting was performed according to formulae described by Feldman (Anal. Biochem. 1972, 48, 317-338). IC50, nH and Ki values were expressed as geometrical mean.

T1 sequence (P50406 whole entry): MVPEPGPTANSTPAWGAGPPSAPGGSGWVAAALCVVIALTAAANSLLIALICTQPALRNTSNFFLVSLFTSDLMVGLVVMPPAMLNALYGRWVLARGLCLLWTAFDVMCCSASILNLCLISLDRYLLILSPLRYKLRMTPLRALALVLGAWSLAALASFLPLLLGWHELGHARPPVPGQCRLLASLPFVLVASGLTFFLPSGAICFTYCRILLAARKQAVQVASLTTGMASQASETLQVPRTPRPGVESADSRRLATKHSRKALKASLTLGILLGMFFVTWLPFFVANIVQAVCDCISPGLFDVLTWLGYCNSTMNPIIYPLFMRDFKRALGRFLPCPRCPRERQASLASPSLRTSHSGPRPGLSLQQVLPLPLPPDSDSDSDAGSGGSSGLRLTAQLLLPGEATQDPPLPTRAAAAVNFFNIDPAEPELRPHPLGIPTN

Molecule | Ki
COCc1ccccc1NS(=O)(=O)c1ccc(OC)c(C2CCNC2)c1 (centres unmarked) [Example 3, 4-Methoxy-N-(2-methoxymethyl-phenyl)-3-pyrrolidin-3-yl-benzenesulfonamide hydrochloride] | < 20 nM
COc1ccc(S(=O)(=O)Nc2ccc(C)cc2OC(F)F)cc1C1CCNCC1 [Example 5, N-(2-Difluoromethoxy-4-methyl-phenyl)-4-methoxy-3-piperidin-4-yl-benzenesulfonamide hydrochloride] | < 20 nM
COCc1ccccc1NS(=O)(=O)c1ccc(OC)c(C2CCNCC2)c1 [Example 6, 4-Methoxy-N-(2-methoxymethyl-phenyl)-3-piperidin-4-yl-benzenesulfonamide hydrochloride] | < 100 nM
COc1ccc(S(=O)(=O)Nc2cc(C)ccc2OC(F)F)cc1C1CCN(C)CC1 [Example 7, N-(2-Difluoromethoxy-5-methyl-phenyl)-4-methoxy-3-(1-methyl-piperidin-4-yl)-benzenesulfonamide hydrochloride] | < 10 nM

The remaining lines, values ahead:

Ki | Molecule
< 10 nM | COc1ccc(S(=O)(=O)Nc2cc(C)ccc2OC(F)F)cc1C1CCNC1 (centres unmarked) [Example 1, N-(2-Difluoromethoxy-5-methyl-phenyl)-4-methoxy-3-pyrrolidin-3-yl-benzenesulfonamide hydrochloride]
< 10 nM | COc1ccc(S(=O)(=O)Nc2cc(C)ccc2OC(F)F)cc1C1CCN(C)C1 (centres unmarked) [Example 2, N-(2-Difluoromethoxy-5-methyl-phenyl)-4-methoxy-3-(1-methyl-pyrrolidin-3-yl)-benzenesulfonamide hydrochloride]
< 10 nM | COc1ccc(S(=O)(=O)Nc2cc(C)ccc2OC(F)F)cc1C1CCNCC1 [Example 4, N-(2-Difluoromethoxy-5-methyl-phenyl)-4-methoxy-3-piperidin-4-yl-benzenesulfonamide hydrochloride]

Target: T2, dopamine D2 receptor (Homo sapiens, UniProt P14416)
T2 construct: expressed in transfected cells
T2 sequence (P14416 whole entry): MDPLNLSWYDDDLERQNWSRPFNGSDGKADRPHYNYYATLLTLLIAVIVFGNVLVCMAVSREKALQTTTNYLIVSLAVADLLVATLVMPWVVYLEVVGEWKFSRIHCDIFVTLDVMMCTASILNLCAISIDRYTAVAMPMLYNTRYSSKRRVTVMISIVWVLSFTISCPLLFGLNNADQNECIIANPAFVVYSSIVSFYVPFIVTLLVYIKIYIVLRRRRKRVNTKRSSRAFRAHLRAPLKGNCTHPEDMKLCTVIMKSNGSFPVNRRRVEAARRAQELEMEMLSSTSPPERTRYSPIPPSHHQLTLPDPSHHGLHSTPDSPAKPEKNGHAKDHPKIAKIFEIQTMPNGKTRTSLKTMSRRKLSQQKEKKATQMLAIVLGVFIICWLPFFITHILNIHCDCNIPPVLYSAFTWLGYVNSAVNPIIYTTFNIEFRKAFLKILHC
Assay: Dopamine D2 receptor binding assay (displacement of [125I]-iodospiperone)
Settings: saturation binding experiments, HEK293 D2 membranes; read-out: KD of radioligand
Procedure: The pellets were stored at −80° C. until use. […] (Beckman Ultrazentrifuge XL 80).
Non-specific binding was defined with 1 μM haloperidol.

Kd | Molecule
0.22 nM | iodospiperone [[^125I]-iodospiperone]
